Literature values in patent publication US20240310266A1, “BIOMARKERS FOR CANCER AND METHODS OF USE THEREOF” (Novartis AG, priority 2021, published 2024).

Details: rats

CC(C)(C)c1nc(-c2cccc(NS(=O)(=O)c3c(F)cccc3F)c2F)c(-c2ccnc(N)n2)s1 [dabrafenib, N-{3-[5-(2-aminopyrimidin-4-yl)-2-tert-butyl-1,3-thiazol-4-yl]-2-fluorophenyl}-2,6-difluorobenzenesulfonamide]
proliferative skin lesions: proliferative skin lesions observed
